Results from patent publication US20050002859A1, “COX-2-targeted imaging agents” (Vanderbilt University, priority 2003, published 2005).
Residue numbers refer to the chain shown, from its start. Read-outs that look alike come from different tables or passages of the source.

What was measured:
[1] = biological target: T1, COX-2 (Homo sapiens, UniProt P35354); assay: biochemical
T1 sequence (P35354 18-604): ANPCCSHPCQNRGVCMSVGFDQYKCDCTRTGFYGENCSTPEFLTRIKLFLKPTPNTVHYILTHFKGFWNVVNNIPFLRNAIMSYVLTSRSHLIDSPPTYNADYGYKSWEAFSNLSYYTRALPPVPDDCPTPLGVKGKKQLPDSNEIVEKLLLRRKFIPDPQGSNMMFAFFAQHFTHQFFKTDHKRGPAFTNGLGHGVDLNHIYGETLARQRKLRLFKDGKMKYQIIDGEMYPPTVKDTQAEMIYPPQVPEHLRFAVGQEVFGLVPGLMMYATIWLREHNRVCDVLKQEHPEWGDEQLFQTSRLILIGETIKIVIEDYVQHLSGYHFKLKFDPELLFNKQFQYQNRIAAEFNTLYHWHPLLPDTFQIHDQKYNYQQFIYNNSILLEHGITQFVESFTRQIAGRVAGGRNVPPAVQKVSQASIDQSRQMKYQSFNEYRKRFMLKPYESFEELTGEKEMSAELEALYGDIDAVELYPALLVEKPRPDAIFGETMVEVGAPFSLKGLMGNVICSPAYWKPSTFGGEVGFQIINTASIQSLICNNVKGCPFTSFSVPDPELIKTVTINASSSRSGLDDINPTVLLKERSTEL
Method: (§2) One example of an in vitro screening method takes advantage of the fact that both human and murine recombinant COX-2 can be expressed and isolated in pure form from an Sf-9 cell expression system. Briefly, typical assays involve the incubation of COX-1 (44 nM) or COX-2 (66 nM) in a 200 μL reaction mixture containing 100 mM Tris-HCl, pH 8.0, 500 μM phenol and 50 μM ^14C-arachidonic acid (55 mCi/mmol) for 30 seconds at 37° C. […] The reaction is stopped by the addition of 200 μL of ethanol/methanol/1 M citrate, pH 4.0 (30:4:1). The extracted products are separated by thin layer chromatography (TLC), which allows quantitation of total product formation as well as assessment of product distribution. This assay is useful to define IC50 values for inhibition of either enzyme, and to determine time-dependency of inhibition. It also provides information concerning changes in products formed as a result of inhibition.
(§3) Apoenzyme was reconstituted by the addition of hematin to the assay mixtures. Human COX-2 was expressed in Sf9 insect cells by means of the pVL 1393 expression vector (BD Biosciences Pharmingen, San Diego, Calif., United States of America) and purified by ion exchange and gel filtration chromatography. […]
(§4) IC50 values for the inhibition of purified human COX-2 or ovine COX-1 by test compounds were determined by thin layer chromatography (TLC) radiography. […]

[2] = biological target: T2, ovine COX-1 (Ovis aries, UniProt P05979); assay: Inhibition of purified ovine COX-1, TLC assay
T2 sequence (P05979 25-600): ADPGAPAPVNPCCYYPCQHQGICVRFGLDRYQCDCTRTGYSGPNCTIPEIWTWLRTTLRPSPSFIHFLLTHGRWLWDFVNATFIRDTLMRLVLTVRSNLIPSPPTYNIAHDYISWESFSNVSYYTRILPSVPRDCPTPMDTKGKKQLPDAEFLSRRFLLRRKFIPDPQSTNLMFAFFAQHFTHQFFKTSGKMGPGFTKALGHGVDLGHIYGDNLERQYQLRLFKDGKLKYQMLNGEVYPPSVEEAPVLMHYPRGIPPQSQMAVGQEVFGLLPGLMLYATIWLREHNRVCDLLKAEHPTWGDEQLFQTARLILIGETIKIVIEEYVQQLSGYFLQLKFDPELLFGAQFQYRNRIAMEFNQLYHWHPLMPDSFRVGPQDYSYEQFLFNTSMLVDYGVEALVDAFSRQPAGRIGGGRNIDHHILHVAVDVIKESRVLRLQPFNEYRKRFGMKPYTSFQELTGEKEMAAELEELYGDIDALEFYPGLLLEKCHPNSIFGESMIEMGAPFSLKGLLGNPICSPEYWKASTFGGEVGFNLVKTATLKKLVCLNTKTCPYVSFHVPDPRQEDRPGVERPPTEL
Method: as §2, §3, §4

[3] = biological target: T1, COX-2; conditions: cited from earlier work
[4] = biological target: T3, COX-2 activity in RAW 264.7 murine macrophage cell line (Mus musculus, UniProt Q05769); assay: Inhibition of COX-2 activity (PGD2 synthesis) in activated RAW264.7 macrophages; format: cell-based
T3 construct: The macrophages were exposed to lipopolysaccharide and γ-interferon to induce COX-2; endogenous in cells
T3 sequence (Q05769 18-604): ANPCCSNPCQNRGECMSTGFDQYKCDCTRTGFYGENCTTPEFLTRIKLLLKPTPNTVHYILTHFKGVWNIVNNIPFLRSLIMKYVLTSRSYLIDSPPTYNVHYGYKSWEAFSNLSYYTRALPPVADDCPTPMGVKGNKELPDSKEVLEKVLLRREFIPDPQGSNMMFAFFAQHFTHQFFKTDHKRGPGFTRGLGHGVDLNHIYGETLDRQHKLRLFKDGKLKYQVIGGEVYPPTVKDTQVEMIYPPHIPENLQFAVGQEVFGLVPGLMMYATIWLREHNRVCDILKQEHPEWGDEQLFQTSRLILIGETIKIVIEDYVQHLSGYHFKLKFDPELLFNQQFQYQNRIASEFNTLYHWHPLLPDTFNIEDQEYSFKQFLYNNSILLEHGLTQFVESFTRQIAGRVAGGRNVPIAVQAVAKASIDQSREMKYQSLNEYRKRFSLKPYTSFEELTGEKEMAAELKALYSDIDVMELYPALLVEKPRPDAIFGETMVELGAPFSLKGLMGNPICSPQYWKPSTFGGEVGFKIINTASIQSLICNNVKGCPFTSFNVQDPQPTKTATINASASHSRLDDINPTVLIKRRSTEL
From the text: Thus, NSAID derivatives that are identified as potentially useful in the methods described herein can be further tested using, for example, the RAW264.7 murine macrophage cell line. These cells are readily available (for example, from the American Type Culture Collection, Manassas, Va., United States of America) and are easily cultured in large numbers. They normally express low levels of COX-1 and very low to undetectable levels of COX-2. Upon exposure to bacterial lipopolysaccharide (LPS), however, COX-2 levels increase dramatically over the ensuing 24 hour period, and the cells produce PGD2 and PGE2 from endogenous arachidonic acid stores (generally, ˜1 nmol/10^7 cells total PG formation). After LPS exposure, the addition of exogenous arachidonic acid results in the formation of additional PGD2 and PGE2 as a result of metabolism by the newly synthesized COX-2.
This system provides a number of approaches for testing the inhibitory potency of COX-2-selective ligands (e.g., inhibitors). In general, following LPS activation, cells can be treated for 30 minutes with the desired concentrations of candidate derivative(s) in DMSO. ^14C-arachidonic acid can be added, and the cells can be incubated for 15 minutes at 37° C. Product formation can be assessed following extraction and TLC separation of the culture medium. Alternatively, the effects of candidate derivatives on PG synthesis from endogenous arachidonic acid can be assessed by incubating cells with desired concentrations of candidate derivatives 30 minutes prior to LPS exposure. Following a 24 hour incubation, medium can be collected and extracted, and the amount of PGD2 and/or PGE2 can be assayed by gas chromatography-mass spectrometry, liquid chromatography-mass spectrometry, or ELISA.
Inhibition of COX-2 Activity in Activated RAW264.7. Protocols for COX-2 inhibition in RAW264.7 cells have been previously described (Kalgutkar et al., 1998b). Briefly, cells (6.2×10^6 cells/T25 flask) were activated with lipopolysaccharide (1 μg/mL) and γ-interferon (10 U/mL) in serum-free DMEM for 7 hours and then treated with inhibitor (0-2 μM) for 30 minutes at 37° C. Exogenous arachidonate metabolism was determined by adding [1-^14C]-arachidonate acid (20 μM) for 15 minutes at 37° C. IC50 values are the average of two independent determinations.
The macrophages were exposed to lipopolysaccharide and γ-interferon to induce COX-2 and then treated with several concentrations of Compound 355.

[5] = test system: serum thromboxane B2 (COX-1 activity); conditions: cited from earlier work
[6] = test system: rat carageenan footpad edema; assay: Rat carageenan footpad edema model; format: in vivo
Method: The first is the rat carageenan footpad model. Maximal edema is obtained in this model 3 hours after carageenan injection.

[7] = test system: PGE2 in pouch exudate (COX-2 activity); conditions: cited from earlier work
[8] = biological target: T4, COX-1 (Ovis aries, UniProt P05979); assay: Inhibition of COX-1 by NSAID derivatives (species not stated); format: biochemical
T4 sequence (P05979 25-600): T2 sequence (P05979 25-600)
Method: (§1) While the TLC assay described above provides considerable information, it is labor-intensive for screening large numbers of candidate NSAID derivatives. Accordingly, as an alternative, a simplified assay can be used. Incubation conditions can be essentially as described above, except all candidate derivatives are first screened at a concentration of 1 mM with a preincubation time of 30 minutes. The substrate need not be radiolabeled, and the reaction can be stopped by the addition of 2 μL of formic acid. Product formation can be quantitated by enzyme-linked immunosorbent assay (ELISA) using commercially available kits. […] Other in vitro assay methods for screening NSAID derivatives for activity (e.g., selectivity for the COX-2 enzyme) can also be used by the skilled artisan.

[9] = biological target: T1, COX-2; assay: Inhibition of purified COX-2 by NSAID derivatives (species not stated); format: biochemical; conditions: purified COX-2
Method: as §1

[10] = biological target: T3, COX-2 activity in RAW 264.7 murine macrophage cell line; conditions: LPS-activated RAW 264.7; exogenous arachidonic acid; read-out: IC50 for inhibition of PGD2 synthesis; cited from earlier work
[11] = biological target: T5, S516A mutant of COX-2 (Homo sapiens, UniProt P35354, S516A); conditions: cited from earlier work
T5 sequence (P35354 18-604 S516A): T1 sequence (P35354 18-604) with S499A

[12] = test system: gastric lesions; conditions: rat, in vivo, 100 mg/kg
[13] = test system: HCT-15 colon cancer cells; conditions: HCT-15 cells, do not express COX-2; cited from earlier work
[14] = test system: HCA-7 colon cancer cells; conditions: HCA-7 cells, express high levels of COX-2; read-out: IC50 growth in soft agar; cited from earlier work
[15] = test system: Sprague-Dawley rats; assay: 14-day daily oral toxicity in Sprague-Dawley rats; format: in vivo; conditions: daily oral 100 mg/kg, at 14 days
[16] = biological target: T4, COX-1; conditions: cited from earlier work
[17] = activated RAW 264.7 cells, read-out: IC50 for inhibition of PGD2 synthesis/production
[18] = Rattus norvegicus, po, maximal edema 3 hours after carageenan injection, read-out: ED50 inhibition of edema formation

COc1ccc2c(c1)c(CC(=O)Nc1ccc(F)cc1)c(C)n2C(=O)c1ccc(Cl)cc1F [Compound 360, 2-[1-(4-Chloro-2-fluoro-benzoyl)-5-methoxy-2-methyl-1H-indol-3-yl]-N-(4-fluoro-phenyl)-acetamide]
IC50 [1]: 100 nM
IC50 [2]: > 60000 nM

CSc1ccccc1OC(C)=O [o-(Acetoxyphenyl)methyl sulfide]
inhibitory potency and selectivity for COX-2 [3]: moderate

COc1ccc2c(c1)c(CC(=O)NCCNC(=O)c1ccc(F)cc1)c(C)n2C(=O)c1ccc(Cl)cc1 [Compound 355, N-(2-{2-[1-(4-Chloro-benzoyl)-5-methoxy-2-methyl-1H-indol-3-yl]-acetylamino}-ethyl)-4-fluoro-benzamide]
IC50 [1]: 103 nM
IC50 [2]: > 60000 nM
IC50 [4, 17]: 500 nM

COc1ccc2c(c1)c(CC(=O)O)c(C)n2C(=O)c1ccc(Cl)cc1 [indomethacin]
reduction of TXB2 levels ([5]; 2 mg/kg dose): 90%
ED50 ([6]; rat carageenan footpad model (Example 14), read-out: ED50): 2 mg/kg
reduction of PGE2 levels ([7]; 2 mg/kg dose): 100%

O=C(c1ccccc1)c1ccc2n1CCC2C(=O)NCc1ccc(F)cc1 (stereo not shown) [Compound 19, p-fluorobenzyl derivative of ketorolac amide]
IC50 [8]: > 65000 nM
IC50 [4, 17]: 200 nM
IC50 [9]: 80 nM

CCCCC#CCSc1ccccc1OC(C)=O [APHS, o-(acetoxyphenyl)hept-2-ynyl sulfide]
IC50 [10]: 120 nM
effect on serum TXB2 levels ([5]; dose of 5 mg/kg): no effect
reduction of serum TXB2 levels ([5]; dose of 50 mg/kg): 11%
inhibitory effect on S516A mutant of COX-2 [11]: resistant
gastric toxicity [12]: no gastric toxicity
ED50 [6, 18]: 6 mg/kg
effect on growth [13]: no effect
selectivity for COX-2 relative to aspirin [3]: 100 times
time to complete inactivation of COX-2 [3]: ≤ 30 min
kinact/Ki ([3]; irreversible inactivation of COX-2): ~3000 M⁻¹ s⁻¹
reduction of PGE2 levels in pouch exudate ([7]; dose of 5 mg/kg): 95%
reduction of pouch PGE2 levels ([7]; dose of 50 mg/kg): 100%
IC50 [14]: 2000 nM
toxicities by gross or histopathological evaluation [15]: no detectable toxicities

COc1ccc2c(c1)c(CC(=O)NCCOC(=O)c1cc(I)cc(I)c1I)c(C)n2C(=O)c1ccc(Cl)cc1 [Compound 5]
IC50 [8]: > 50000 nM
IC50 ([4]; read-out: IC50 for inhibition of COX-2 activity in RAW 264.7 macrophages): 3500 nM
IC50 [9]: 50 nM

CC(=O)Oc1ccccc1C(=O)O [aspirin]
ED50 [6, 18]: 125 mg/kg
potency against COX-1 relative to COX-2 [16]: 10-100 times
